Molecules are shown by their SMILES. In brackets after ≈: the same amount, converted by molar mass.

Format in all cases: physicochemical
A short description of series [1]: Solubility in water, buffers and bio-relevant media (37° C., 24 h shaking, HPLC). As to conditions: 37° C., 24 h. How it is done:
The solubility of Form 1, Form 2, Form 5D, Form 6, Form 8, and Form 11 was analyzed in water, 0.1NaqueousHCl, pH4.5 acetate buffer solution, pH6.8 phosphate buffer solution, simulated gastric fluid (SGF), Fasted State Simulated Intestinal Fluid (FaSSIF), and Fed State Simulated Intestinal Fluid (FeSSIF).
About 5 mg or 10 mg of sample was weighed out into each vial and mixed with about 5 ml of medium to form a solution. The target concentration for the potassium salt in water was 2 mg/ml; and the target concentration for all other forms were 1 mg/mL. All samples were kept shaking at 200 rounds per minute (rpm) under 37° C. for 24 hours. The pH value of these samples were determined after shaking for 24 hours. Subsequently, they were centrifuged at the speed of 12000 rpm for 2 mins. The supernatant was diluted with methanol as necessary, and the concentrations were determined by HPLC. When the solubility of potassium salt was tested in water, the supernatant was diluted 100 times, while no other samples were diluted. The HPLC analysis utilizes Agilent Eclipse XDB-C8 4.6*150 mm, 5 μm column at 40° C., a mobile phase of 0.1% TFA: ACN=70:30, an injection volume of 10 μl, a flow rate of 1.0 ml/min, a diluent of methanol, and a detection wavelength of 234 nm.

Series [2] in a line: Long-term stability of Compound I Form 2 (XRPD). The procedure: The stability of Compound I Form 2 was analyzed by the following two experiments.
Experiment A: The following is an X-ray Powder Diffraction Analytical method used to obtain the data shown in FIG. 43 and FIG. 44, and which complies with ChP<0451>/USP/NF<941>/EP10.6 2.9.33. Standard XRPD patterns were collected using a Bruker D8 Advance diffractometer or equivalent instrument.
Parameters for collecting the XRPD shown in FIG. 43 and FIG. 44 is as follows:
The XRPD patterns shown in FIG. 45 and FIG. 46 were collected using a Bruker D2 Phaser X-ray diffractometer. Detector: PSD LynxEye; Sample holder: Zero background sample holder or equivalent; Software: DIFFRAC. Measurement Center, Version V6.5.0 or equivalent; Diffractometer Settings: Diffractometer type: 02 phaser; Goniometer Type: Theta/Theta; Sample Stage: Standard rotating stage; Goniometer Diameter: 282.2 mm; Divergence slit: 1.0 mm; Primary seller slit: 2.5°; Secondary seller slit: 2.5°; Airscatter screen module: 1.0 mm; Tube Element: Cu; Tube parameters: voltage 30 kV; current 10 mA; Scan Parameters: SSD160: Locked coupled; SSD160-2: coupled Two Theta/Theta Scan Type: SSD160: Locked coupled; SSD160-2: coupled Two Theta/Theta; Continuous PSD fast Scan Mode: Continuous PSD fast scan; Rotation Speed: 20 rpm; Start: 3° ˜40° (2 0); Scan Step: 0.02° (2 0); Scan Speed: 0.2s/step; Detector opening: 4.5°; Sample Analysis; Test the sample with the Diffractometer Settings and Scan Parameters. The powder X-ray diffraction pattern of the sample was recorded and calculations were performed according to Bruker D2 Phaser X-ray Diffractometer User Manual V6-Identification of Crystal Form by X-Ray Powder Diffraction (XRPD)-Bruker D2 Phaser.

Series [3] can be described thus: Visual solubility of Form 1 in common solvents. As to conditions: thermodynamic from solid. The procedure:
Solubility of Form 1 was tested visually. About 5 mg of Form I was accurately weighed into a glass vial of 5 ml. Small amounts of solvent was added gradually into the vial until the compound was dissolved or when the total amount added reached 5 ml. The cumulative volume of the solvent was recorded.

The next series can be described thus: Heating study of Form 1. As to conditions: 110° C. about 10 minutes / 100° C. 20 minutes. How it is done: About 150 mg of Form 1 was heated to 110° C. and maintained for about 10 minutes. The sample color changed from light yellow to dark yellow. The darker sample was evaluated with XRPD. The sample color changed back to light yellow at the conclusion of the XRPD evaluation, which was similar to the color before the heating treatment. […] Another sample of Form 1 was heated in an oven at 100° C. for 20 minutes and subsequently analyzed for the moisture content using KF method. The moisture content of heated Form 1 was 6.8%. […] The product is unstable and will rapidly absorb water.

Usually Solubility stands for how much of the substance goes into solution per volume. Take `CCc1nc2ccccn2c1C(=O)c1cc(Br)c(O)c(C#N)c1` [Form 2, 3-bromo-5-[(2-ethylimidazo[1,2-a]pyridin-3-yl)carbonyl]-2-hydroxybenzonitrile]: the Solubility was 3.8 µg/mL (≈ 10.3 µM) in series [1] (0.1N HCl); 41.8 µg/mL (≈ 113 µM) in series [1] (FaSSIF); 2.8 µg/mL (≈ 7.56 µM) in series [1] (FeSSIF); 3.0 µg/mL (≈ 8.1 µM) in series [1] (SGF); 20.0 µg/mL (≈ 54 µM) in series [1] (Water); under 1 µg/mL in series [1] (pH 4.5 acetate buffer). In series [1] (pH 6.8 phosphate buffer), this compound registered a Solubility of 24.1 µg/mL (≈ 65.1 µM). For the same compound, the “Highest concentration among the media” value in series [1] is reported as “around 40 μg/ml”. In addition, the “Solubility in the buffer solution and bio-relevant medium” value in series [1] was “low solubilities”. For the same compound, the “Period over which the form remains stable (XRPD)” value in series [2] (Experiment A, 25° C.±2° C./60% RH±5% RH) was “at least 12 months”; in series [2] (Experiment A, 40° C.±2° C./75% RH±5% RH), “at least 6 months”; in series [2] (Experiment B, 25° C.±2° C./60% RH±5% RH), “at least 48 months”; in series [2] (Experiment B, 40° C.±2° C./75% RH±5% RH) it was “at least 6 months”.
As to `CCc1nc2ccccn2c1C(=O)c1cc(Br)c(O)c(C#N)c1` [Form 1, 3-bromo-5-[(2-ethylimidazo[1,2-a]pyridin-3-yl)carbonyl]-2-hydroxybenzonitrile], the Solubility in series [3] (acetone, organic solvent or mixture) was under 1000 µg/mL; in series [3] (acetone:water 3:1, organic solvent or mixture, Acetone:water = 3:1), under 1000 µg/mL; in series [3] (acetonitrile (ACN), organic solvent or mixture), under 1000 µg/mL; in series [3] (dichloromethane (DCM), organic solvent or mixture) it was under 1000 µg/mL; in series [3] (dimethylformamide (DMF), organic solvent or mixture), over 25000 µg/mL; in series [3] (dimethylsulfoxide (DMSO), organic solvent or mixture), over 25000 µg/mL. The Solubility in series [3] (ethanol, organic solvent or mixture, Ethanol (EtOH)) is under 1000 µg/mL; in series [3] (ethyl acetate, organic solvent or mixture, Ethyl acetate (EtAc)), under 1000 µg/mL; in series [3] (heptane, organic solvent or mixture), under 1000 µg/mL; in series [3] (isopropyl alcohol, organic solvent or mixture), under 1000 µg/mL; in series [3] (methanol, organic solvent or mixture, Methanol (MeOH)), under 1000 µg/mL; in series [3] (methanol:water 3:1, organic solvent or mixture, Methanol:water = 3:1), under 1000 µg/mL. Besides, the Solubility in series [3] (methyl ethyl ketone (MEK), organic solvent or mixture) was under 1000 µg/mL; in series [3] (tetrahydrofuran (THF), organic solvent or mixture) it was about 3000 µg/mL (≈ 8100 µM); in series [3] (toluene, organic solvent or mixture), under 1000 µg/mL; in series [3] (water, Water (H2O)), under 1000 µg/mL; in series [1] (0.1N HCl) it was 5.0 µg/mL (≈ 13.5 µM); in series [1] (FaSSIF), 16.6 µg/mL (≈ 44.8 µM). Further, the Solubility is 1.9 µg/mL (≈ 5.13 µM) in series [1] (FeSSIF); 2.9 µg/mL (≈ 7.83 µM) in series [1] (SGF); 9.4 µg/mL (≈ 25.4 µM) in series [1] (Water); 1.0 µg/mL (≈ 2.7 µM) in series [1] (pH 4.5 acetate buffer); 19.8 µg/mL (≈ 53.5 µM) in series [1] (pH 6.8 phosphate buffer). Also, the “Solubility in the buffer solution and bio-relevant medium” value in series [1] is on record as “low solubilities”. In the series “Heating study of Form 1”, the Behaviour upon heating entry is given as “may lose water upon heating”.

For the origin of these results see patent US20250368639A1, “SOLID FORMS OF A COMPOUND FOR TREATING OR PREVENTING HYPERURICEMIA OR GOUT” (ATOM THERAPEUTICS CO., LTD, priority 2022, published 2025).
